Assay results from EP0359821A1, “METHOD OF STERILIZING PLANT ANTHERS” (priority 1988, dated 1989).

How the values were obtained:
[1] = tested on: Winterweizens Sorte Mironovskaya 808; assay: Field trial of gametocidal activity (anther sterilisation), winter wheat; assay type: in vivo, Weizen; settings: 2% aqueous emulsion, 20 kg/ha; for response vs control in vivo at 20000 g/ha: control = 100, read-out: Prozentsatz des Ansetzens bei freier Bestäubung
[2] = tested on: Diploider Roggen Sorte Chulpan; assay: Field trial of gametocidal activity, diploid rye Chulpan; assay type: in vivo; settings: single compounds, 1% aqueous emulsion, 10 kg/ha; for Anzahl von Körnern der Ähre bei freier Bestäubung / Anzahl von Körnern der Ähre im Isolator / percent sterility at 10000 g/ha: Chulpan, V. or VI. period; for percent sterility at 10000 g/ha: read-out: Prozentsatz der Sterilität; for response vs control in vivo at 10000 g/ha: read-out: Prozentsatz des Ansetzens bei freier Bestäubung, Chulpan, control = 100
Description: (§1) Bei Weizen und Tritikale werden Einzelisolatoren verwendet.
Pflanzen von diploidem Roggen Sorte Chulpan werden in der V. oder VI.
Der Verbrauch an Sterilisationsmitteln beträgt 10 kg/ha.

[3] = tested on: Tetraploider Roggen Sorte Belta; assay: Field trial of gametocidal activity, tetraploid rye Belta; assay type: in vivo; settings: 1% aqueous emulsion, 10 kg/ha
[4] = tested on: Tritikale Sorte PRAG I09; assay: Field trial of gametocidal activity, triticale; assay type: in vivo; settings: 1% aqueous emulsion, 12 kg/ha; for Prozentsatz des Ansetzens bei freier Bestäubung: control = 100
Description: as §1
Pflanzen von Tritikale Sorte PRAG I09 werden in der V. und VI.
Der Verbrauch an Sterilisationsmittel beträgt 12 kg/ha.

[5] = tested on: Hirse Sorte Mironovskoe 94; assay: Field trial of gametocidal activity, millet Mironovskoe 94; assay type: in vivo; settings: 1% aqueous emulsion, 10 kg/ha; for Anzahl von Körnern der Rispe bei freier Bestäubung / Anzahl von Körnern der Rispe im Isolator / percent pollen sterility at 10000 g/ha: V. or VI. period; for percent pollen sterility at 10000 g/ha: read-out: Prozentsatz der Sterilität; for response vs control in vivo at 10000 g/ha: control = 100, read-out: Prozentsatz des Ansetzens bei freier Bestäubung
[6] = in vivo; settings: mouse, LD50, weisse Mäuse
[7] = tested on: Hirse Sorte K-9693 Kormovoe 1; assay: Field trial of gametocidal activity, millet K-9693 Kormovoe 1; settings: 1% aqueous emulsion, 10 kg/ha
[8] = tested on: Diploider Roggen Sorte Gibrid 1864/74; assay: Field trial of gametocidal activity, diploid rye Gibrid 1864/74; settings: 1% aqueous emulsion, 10 kg/ha; for Anzahl von Körnern der Ähre bei freier Bestäubung / Anzahl von Körnern der Ähre im Isolator / Prozentsatz der Sterilität: V. period; for Prozentsatz des Ansetzens bei freier Bestäubung: control = 100
[9] = tested on: Sommerweizen Sorte Moskovskaya 35; assay: Field trial of gametocidal activity, spring wheat; assay type: in vivo, Weizen; settings: 1% aqueous emulsion; for Anzahl von Körnern der Ähre bei freier Bestäubung / Anzahl von Körnern der Ähre im Isolator / percent sterility at 10000 g/ha / response vs control in vivo at 10000 g/ha: 10 kg/ha; for Anzahl von Körnern der Ähre bei freier Bestäubung / Anzahl von Körnern der Ähre im Isolator / percent sterility at 10000 g/ha: V. period; for percent sterility at 10000 g/ha: read-out: Prozentsatz der Sterilität; for response vs control in vivo / response vs control in vivo at 10000 g/ha: control = 100, read-out: Prozentsatz des Ansetzens bei freier Bestäubung
[10] = tested on: Tetraploider Roggen Sorte Ukrainskaya tetra; assay: Field trial of gametocidal activity, tetraploid rye Ukrainskaya tetra; assay type: in vivo; settings: 1% aqueous emulsion, 10 kg/ha
[11] = tested on: Sonnenblume Sorte Peredovik; assay: Field trial of pollen sterilisation, sunflower Peredovik; assay type: in vivo; settings: 0,2% aqueous emulsion, 1,2 kg/ke (so in the source)
Description: Pflanzen der Sonnenblume Sorte Peredovik werden in der V. oder VI.
Der Verbrauch an Sterilisationsmittel beträgt 1,2 kg/ke.

[12] = tested on: Sonnenblume Linie VK 119; assay: Field trial of pollen sterilisation, sunflower line VK 119; settings: 0,2% aqueous emulsion, 1,2 kg/ha
[13] = tested on: Roggen Sorte Voskhod 2; assay: Field trial of gametocidal activity, diploid rye Voskhod 2; assay type: in vivo; settings: 1% aqueous emulsion, 8 kg/ha
[14] = tested on: Tetraploider Roggen Sorte Jubileinaya; assay: Field trial of gametocidal activity, tetraploid rye Jubileinaya; settings: 1% aqueous emulsion, 10 kg/ha
[15] = V. or VI. period of organogenesis

SMILES | Anzahl von Körnern der Ähre bei freier Bestäubung [1, 15] | Anzahl von Körnern der Ähre im Isolator [1, 15] | response vs control in vivo at 20000 g/ha [1] [%] | Anzahl von Körnern der Ähre bei freier Bestäubung [2] | Anzahl von Körnern der Ähre im Isolator [2] | percent sterility at 10000 g/ha [2] [%] | response vs control in vivo at 10000 g/ha [2] [%] | Anzahl von Körnern der Ähre im Isolator ([3]; V. or VI. period) | Anzahl von Körnern der Ähre im Isolator ([4]; V. and VI. period) | Prozentsatz des Ansetzens bei freier Bestäubung [4] | Anzahl von Körnern der Rispe bei freier Bestäubung [5] | Anzahl von Körnern der Rispe im Isolator [5] | percent pollen sterility at 10000 g/ha [5] [%] | response vs control in vivo at 10000 g/ha [5] [%] | LD50 [6] [mg/kg] | Anzahl von Körnern der Ähre bei freier Bestäubung [8] | Anzahl von Körnern der Ähre im Isolator [8] | Anzahl von Körnern der Ähre bei freier Bestäubung [9] | Anzahl von Körnern der Ähre im Isolator [9] | percent sterility at 10000 g/ha [9] [%] | also measured
OCCOc1ccc(F)cc1 [Beispiel 2] | 27,4 | 0,0 | 67.7 | 48,2 | 0,0 | 100 | 85 | 0,0 | 0,0 | 90,3% | 311,4 | 0,0 | 100 | 82 | 350 | 42,0 | 0,0 |  |  |  | response vs control in vivo at 10000 g/ha ([3]; control = 100, read-out: Prozentsatz des Ansetzens bei freier Bestäubung): 92.8%; Anzahl von Körnern der Ähre bei freier Bestäubung ([4]; V. and VI. period): 62,3; Anzahl von Körnern der Rispe bei freier Bestäubung ([7]; V. or VI. period): 128,7; Anzahl von Körnern der Rispe im Isolator ([7]; V. or VI. period): 0,0; Prozentsatz der Sterilität ([7]; V. or VI. period): 100%; Prozentsatz des Ansetzens bei freier Bestäubung ([7]; control = 100): 87,7%; Prozentsatz der Sterilität [8]: 100%; Prozentsatz des Ansetzens bei freier Bestäubung [8]: 87,9%
OCC(O)COc1ccc(Cl)cc1 (centres unmarked) [Beispiel 3, 3-(4'-Chlorphenoxy)-propandiol-1,2] | 28,6 | 0,6 | 70.6 | 47,2 | 0,0 | 100 | 83.2 |  | 0,0 | 89,0% | 284,7 | 0,0 | 100 | 75 |  |  |  | 25,8 | 0,0 | 100 | percent sterility at 20000 g/ha ([1]; V. or VI. period of organogenesis, read-out: Prozentsatz der Sterilität): 98.4%; response vs control in vivo [9]: 93.8%; Anzahl von Körnern der Ähre bei freier Bestäubung ([10]; V. or VI. period): 40,7; Anzahl von Körnern der Ähre im Isolator ([10]; V. or VI. period): 0,0; Pollensterilität in % [11]: 100%; Ansetzen von Achänen bei freier Bestäubung in % ([11]; V. or VI. period): 81,7%; Ansetzen von Achänen im Isolator bei der Bestäubung mit dem Pollengemisch in % ([11]; V. or VI. period): 0,0%; Ansetzen von Achänen bei freier Bestäubung in % [12]: 84,4%; Ansetzen von Achänen im Isolator bei der Bestäubung mit dem Pollengemisch in % [12]: 0,0%; Pollensterilität in % [12]: 100%
OCC(O)COc1ccc(F)cc1 (centres unmarked) [Beispiel 4] | 30,6 | 0,0 | 75.4 |  |  |  |  |  |  |  |  |  |  |  | 400 to 600 | 42,8 | 0,0 | 25,9 | 0,4 | 98.6 | response vs control in vivo [9]: 94.2%; Prozentsatz der Sterilität [8]: 100%; Prozentsatz des Ansetzens bei freier Bestäubung [8]: 88,2%
O=C(O)c1cc(Br)ccc1O [Beispiel 18, Äthanolaminsalz der 5-Bromsalizylsäure] |  |  |  |  |  |  |  |  |  |  | 320,7 | 0,0 | 100 | 84.5 |  |  |  | 27,9 | 1,8 | 93.4 | response vs control in vivo at 10000 g/ha [9]: 102%; Prozentsatz der Sterilität ([10]; V. or VI. period): 99,8%; Prozentsatz des Ansetzens bei freier Bestäubung ([10]; control = 100): 94,7%
OCC(O)COc1ccccc1F (centres unmarked) [Beispiel 21, 3-(2'-Fluorophenoxy)-propandiol-1,2] |  |  |  |  |  |  |  | 0,0 |  |  | 307,5 | 0,0 | 100 | 81 |  |  |  | 26,2 | 0,1 | 99.9 | response vs control in vivo at 10000 g/ha [9]: 95.3%; Anzahl von Körnern der Ähre bei freier Bestäubung ([13]; V. or VI. period): 46,8; Anzahl von Körnern der Ähre im Isolator ([13]; V. or VI. period): 0,3; Prozentsatz der Sterilität ([13]; V. or VI. period): 99,4%; Prozentsatz des Ansetzens bei freier Bestäubung ([13]; control = 100): 85,7%; Anzahl von Körnern der Ähre bei freier Bestäubung ([3]; V. or VI. period): 40,7; Anzahl von Körnern der Ähre im Isolator ([14]; V. or VI. period): 0,0; Prozentsatz des Ansetzens bei freier Bestäubung ([14]; control = 100): 97,5%
